Experimental data reported in US20240398962A1, “DENDRIMER-GLUTAMINE ANTAGONIST CONJUGATES AND METHODS OF USE THEREOF” (The Johns Hopkins University, priority 2021, published 2024).

Tested on: glutaminase
Test: not given
Details: cited from earlier work

Question: With `[N-]=[N+]=CC(=O)CC[C@H](N)C(=O)O` [DON, 6-diazo-5-oxo-L-norleucine] as the compound, how does the “Inhibition of glutamine-utilizing enzymes including glutaminase” value read?
Answer: low micromolar levels

Tested on: not listed separately
Test: Stability of the prepared product on storage
Format: physicochemical
Details: should be stored at −80° C.
Procedure: Piperidine (1.00 mL, 10.3 mmol, 20 equiv.) was added and the reaction mixture was stirred at rt for 2 h. The solvent was evaporated and the residue was chromatographed on silica gel (CHCl3/MeOH 1:1+2% Et3N) to afford the desired product I (165 mg, 73%) as a yellowish oil. The prepared product I is very unstable and should be stored at −80° C.

Question: For `CC(C)OC(=O)[C@H](CCC(=O)C=[N+]=[N-])NP(=O)(OCCCCN)Oc1ccccc1` (stereo partly drawn) [I, Isopropyl (2S)-2-(((4-aminobutoxy)(phenoxy)phosphoryl)amino)-6-diazo-5-oxohexanoate], which “Stability of prepared product” value is on record?
Answer: very unstable

Tested on: not listed separately
Test: Liver homogenate stability (compound disappearance by LC-MS/MS)
Format: in vitro ADME
Details: 20 μm, 37° C.
Procedure: Liver or EL4 lymphoma tumor tissues were washed and diluted 10-fold in 0.1 M potassium phosphate buffer and homogenized using a probe sonicator. To evaluate the stability of the analogs 1 mL aliquots were made of each matrix and the analogs were spiked to a final assay concentration of 20 μm. Spiked samples were incubated in an orbital shaker at 37° C. for 1 h, following which reactions were quenched in triplicate with three volumes of acetonitrile containing the internal standard (IS; losartan: 0.5 μm). The samples were vortex-mixed for 30 s and centrifuged at 10 000 g for 10 min at 4° C. Fifty microliters of the supernatant was diluted with 50 μL of water and transferred to a 250 μL polypropylene vial sealed with a Teflon cap. Compound disappearance was monitored over time using liquid chromatography tandem mass spectrometry (LC-MS/MS).

Question: For `CC(C)C[C@H](NC(=O)OCC1c2ccccc2-c2ccccc21)C(=O)N[C@@H](CCC(=O)C=[N+]=[N-])C(=O)N[C@@H](Cc1ccccc1)C(=O)NCCOCCOCCOCCC(=O)O` [VII, (5S,8S,11S)-11-benzyl-8-(4-diazo-3-oxobutyl)-1-(9H-fluoren-9-yl)-5-isobutyl-3,6,9,12-tetraoxo-2,16,19,22-tetraoxa-4,7,10,13-tetraazapentacosan-25-oic acid], which “Liver homogenate stability (% remaining at 1 h incubation)” value is on record?
Answer: 0%

Question: Which “Liver homogenate stability (% remaining at 1 h incubation)” value does the source give for `CC(C)C[C@H](NC(=O)COCCN)C(=O)N[C@@H](CCC(=O)C=[N+]=[N-])C(=O)OC(C)(C)C` [II, t-Butyl (S)-2-((S)-2-(2-(2-aminoethoxy)acetamido)-4-methylpentanamido)-6-diazo-5-oxohexanoate] here?
Answer: 94%

Question: For `CC(C)C[C@H](NC(=O)CCOCCOCCN)C(=O)N[C@@H](CCC(=O)C=[N+]=[N-])C(=O)OC(C)C` [IV, Isopropyl (2S,5S)-15-amino-2-(4-diazo-3-oxobutyl)-5-isobutyl-4,7-dioxo-10,13-dioxa-3,6-diazapentadecanoate], which “Liver homogenate stability (% remaining at 1 h incubation)” value is on record?
Answer: 0%

Question: With `CC(C)C[C@H](NC(=O)CCOCCOCCN)C(=O)N[C@@H](CCC(=O)C=[N+]=[N-])C(=O)OC(C)(C)C` [III, t-Butyl (2S,5S)-15-amino-2-(4-diazo-3-oxobutyl)-5-isobutyl-4,7-dioxo-10,13-dioxa-3,6-diazapentadecanoate] as the compound, how does the “Liver homogenate stability (% remaining at 1 h incubation)” value read?
Answer: 79%

Question: Which “Liver homogenate stability (% remaining at 1 h incubation)” value does the source give for `CC(C)C[C@H](NC(=O)OCC1c2ccccc2-c2ccccc21)C(=O)N[C@@H](CCC(=O)C=[N+]=[N-])C(=O)N[C@@H](Cc1ccccc1)C(=O)NCCOCCOCCOCCOCCC(=O)O` [VI, (5S,8S,11S)-11-Benzyl-8-(4-diazo-3-oxobutyl)-1-(9H-fluoren-9-yl)-5-isobutyl-3,6,9,12-tetraoxo-2,16,19,22,25-pentaoxa-4,7,10,13-tetraazaoctacosane-28-oic acid] here?
Answer: 12%

Question: Which “Liver homogenate stability (% remaining at 1 h incubation)” value does the source give for `CC(C)OC(=O)[C@H](CCC(=O)C=[N+]=[N-])NP(=O)(OCCCCN)Oc1ccccc1` (stereo partly drawn) [I, Isopropyl (2S)-2-(((4-aminobutoxy)(phenoxy)phosphoryl)amino)-6-diazo-5-oxohexanoate] here?
Answer: 32%

Question: With `CC(C)C[C@H](NC(=O)COCCN)C(=O)N[C@@H](CCC(=O)C=[N+]=[N-])C(=O)OC(C)C` [V, Isopropyl (S)-2-((S)-2-(2-(2-aminoethoxy)acetamido)-4-methylpentanamido)-6-diazo-5-oxohexanoate] as the compound, how does the “Liver homogenate stability (% remaining at 1 h incubation)” value read?
Answer: 17%
